Source: paper PMC9578392, “Safety, Tolerability, and Pharmacokinetics of the Novel Antiviral Agent Ensitrelvir Fumaric Acid, a SARS-CoV-2 3CL Protease Inhibitor, in Healthy Adults” (Antimicrobial Agents and Chemotherapy, 2022)

Experiments:
[1] = test system: Omicron; parameters: method as in PMID 35081300; settings: cited from earlier work
[2] = test system: CYP3A; experiment: Drug-drug interaction with midazolam (cohort G)
[3] = in vivo; cited from earlier work
[4] = midazolam 2 mg, ensitrelvir 750/250 mg

CC(C)C(=O)OC[C@H]1O[C@@H](n2ccc(NO)nc2=O)[C@H](O)[C@@H]1O [molnupiravir]
efficacy against Omicron [1]: efficacious

CCC(CC)COC(=O)[C@H](C)N[P@](=O)(OC[C@H]1O[C@@](C#N)(c2ccc3c(N)ncnn23)[C@H](O)[C@@H]1O)Oc1ccccc1 [remdesivir]
efficacy against Omicron [1]: efficacious

Cc1ncc2n1-c1ccc(Cl)cc1C(c1ccccc1F)=NC2 [Midazolam, midazolam]
increase of AUC0-last of midazolam coadministered with ensitrelvir vs midazolam alone ([2]; ensitrelvir 750/250 mg, day 6): 7.23 fold
increase of Cmax of midazolam coadministered with ensitrelvir vs midazolam alone ([2]; ensitrelvir 750/250 mg, day 6): 2.78 fold
half-life ([2]; human, in vivo): 9.13 h
AUC(0-inf) ([2]; human, in vivo, 2 mg): 35.7 ng·h/mL
AUC(0-t) ([2]; human, in vivo, 2 mg): 34.7 ng·h/mL
Cmax ([2]; human, in vivo, 2 mg): 16.2 ng/mL
MRT ([2]; human, in vivo, 2 mg): 4.11 h
half-life ([2]; human, in vivo, 2 mg): 4.36 h
k el ([2]; human, in vivo, 2 mg): 4.42e-05 s⁻¹
AUC0-inf, GLS mean (90% CI) ratio (midazolam with ensitrelvir/midazolam alone) [2, 4]: 8.8002 (6.7061/11.5484)
AUC0-last, GLS mean (90% CI) ratio (midazolam with ensitrelvir/midazolam alone) [2, 4]: 7.2293 (5.5817/9.3632)
Cmax, GLS mean (90% CI) ratio (midazolam with ensitrelvir/midazolam alone) [2, 4]: 2.7763 (2.3341/3.3022)
MRT, GLS mean (90% CI) ratio (midazolam with ensitrelvir/midazolam alone) [2, 4]: 2.8734 (2.5380/3.2530)
t1/2,z, GLS mean (90% CI) ratio (midazolam with ensitrelvir/midazolam alone) [2, 4]: 2.0954 (1.9490/2.2529)

CC(C)(C)[C@H](NC(=O)C(F)(F)F)C(=O)N1C[C@H]2[C@@H]([C@H]1C(=O)N[C@H](C#N)C[C@@H]1CCNC1=O)C2(C)C [nirmatrelvir]
elimination in humans [3]: rapid
